# Source: US7547686B2, “Combretastatin A-3 prodrug” (Arizona Board of Regents, a body corporate of the State of …, priority 2001, dated 2009)
# How the values were obtained:
# [1] = test system: Stenotrophomonas maltophilia, Micrococcus luteus, Staphylococcus aureus, Escherichia coli, Enterobacter cloacae, Enterococcus faecalis, Streptococcus …; settings: Pettit et al., 2000; cited from earlier work
# Cryptococcus neoformans = test: Disk diffusion assay, Cryptococcus neoformans; type: cell-based
# Text: (§1) Antimicrobial susceptibility testing. Compounds were screened against the bacteria Stenotrophomonas maltophilia, Micrococcus luteus, Staphylococcus aureus, Escherichia coli, Enterobacter cloacae, Enterococcus faecalis, Streptococcus pneumoniae, Neisseria gonorrhoeae, and the fungi Candida albicans and Cryptococcus neoformans, according to established disk susceptibility testing protocols (National Committee for Clinical Laboratory Standards 1997. Performance standards for antimicrobial disk susceptibility tests-sixth edition: Approved Standard M2-A6, NCCLS, Wayne, Pa.)
# [2] = type: physicochemical; settings: at 25° C.
# [3] = test system: Stenotrophomonas maltophilia, Micrococcus luteus, Staphylococcus aureus, Escherichia coli, Enterobacter cloacae, Enterococcus faecalis, Streptococcus …; test: Antimicrobial disk susceptibility testing, bacteria and fungi panel; type: cell-based
# Text: as §1
# [4] = test system: human cancer cell lines and murine P388 lymphocytic leukemia cell line; test: Cancer cell line inhibitory activity, panel as a whole (Table II); type: cell-based
Compound,Solubility [2] [mg/mL],also measured
COc1ccc(/C=C/c2cc(OC)c(OC)c(OC)c2)c(O)c1O [(E)-combretastatin A-1],,antibacterial and antifungal activities (literature) [1]: antibacterial and antifungal activities
"COc1ccc(/C=C\c2cc(O)c(OC)c(OC)c2)cc1O [Compound 2a, Combretastatin A-3]",,MIC (Cryptococcus neoformans): 50-100 μg/disk
"COc1ccc(/C=C\c2cc(OC)c(OC)c(OP(=O)([O-])O)c2)cc1OP(=O)([O-])O.[Na+].[Na+] [Compound 10a, Sodium combretastatin A-3 3,3′-O-phosphate]",>218,activity in disk diffusion assays [3]: not active; cancer cell line inhibitory activity (in words) [4]: good cancer cell line inhibitory activity
COc1ccc(/C=C\c2cc(OC)c(OC)c(OP(=O)([O-])O)c2)cc1OP(=O)([O-])O.[Li+].[Li+] [Compound 10b],>100,
COc1ccc(/C=C\c2cc(OC)c(OC)c(OP(=O)([O-])O)c2)cc1OP(=O)([O-])O.[K+].[K+] [Compound 10c],>228,cancer cell line inhibitory activity (in words) [4]: good cancer cell line inhibitory activity
COc1ccc(/C=C\c2cc(OC)c(OC)c(OP(=O)([O-])O)c2)cc1OP(=O)([O-])O.[Rb+].[Rb+] [Compound 10d],>60,
COc1ccc(/C=C\c2cc(OC)c(OC)c(OP(=O)([O-])[O-])c2)cc1OP(=O)([O-])[O-].[Mg+2].[Mg+2] [Compound 10h],10,
C1COCCN1.C1COCCN1.COc1ccc(C=Cc2cc(OC)c(OC)c(OP(=O)(O)O)c2)cc1OP(=O)(O)O [Compound 10k],>40,
COc1ccc(/C=C\c2cc(OC)c(OC)c(OP(=O)(O)O)c2)cc1OP(=O)(O)O.NC(=O)c1cccnc1.NC(=O)c1cccnc1.NC(=O)c1cccnc1.NC(=O)c1cccnc1 [Compound 10l],27,
